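Where inhibition never reached the appropriate level, the endpoint shown equals the highest concentration tested. Otherwise, values were interpolated linearly from a five-concentration, 48-hour dose response in 96-well plates. GI50 = concentration required for 50% inhibition of growth. TGI denotes the concentration required for complete inhibition of growth.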
Columns and labels:
Experiment in all cases: NCI-60 cell line screen, 48 h
BT-549 breast = system: BT-549 breast
COLO 205 colon = system: COLO 205 colon
EKVX NSCLC = system: EKVX NSCLC
K-562 leukemia = system: K-562 leukemia
LOX IMVI melanoma = system: LOX IMVI melanoma
MCF7 breast = system: MCF7 breast
NCI-H226 lung = system: NCI-H226 lung
NCI-H460 lung = system: NCI-H460 lung
NCI-H522 lung = system: NCI-H522 lung
OVCAR-5 ovarian = system: OVCAR-5 ovarian

Structure (SMILES)	GI50 (BT-549 breast)	TGI (BT-549 breast)	GI50 (COLO 205 colon)	TGI (COLO 205 colon)	GI50 (EKVX NSCLC)	TGI (EKVX NSCLC)	GI50 (K-562 leukemia)	TGI (K-562 leukemia)	GI50 (LOX IMVI melanoma)	TGI (LOX IMVI melanoma)	GI50 (MCF7 breast)	TGI (MCF7 breast)	GI50 (NCI-H226 lung)	TGI (NCI-H226 lung)	GI50 (NCI-H460 lung)	TGI (NCI-H460 lung)	GI50 (NCI-H522 lung)	TGI (NCI-H522 lung)	GI50 (OVCAR-5 ovarian)	TGI (OVCAR-5 ovarian)
COC(=O)CCCNC(=O)C(=O)c1c(O)c(O)c(C(C)C)c2cc(C)c(-c3c(C)cc4c(C(C)C)c(O)c(O)c(C(=O)C(=O)NCCCC(=O)OC)c4c3O)c(O)c12	1.19 µM	7.28 µM	0.382 µM	2.03 µM	0.317 µM	3.79 µM	0.246 µM	6.88 µM	0.537 µM	1.48 µM	0.641 µM	4.71 µM	0.575 µM	2.94 µM	0.345 µM	3.74 µM	0.379 µM	1.9 µM	0.781 µM	> 32.5 µM
COc1ccccc1N1CCN(CCCOc2ccc(C(=O)/C=C3/C(=O)Nc4ccccc43)cc2)CC1	4.42 µM	16.1 µM	12.7 µM	33.2 µM	7.34 µM	41.2 µM	3.51 µM	> 34.8 µM	11.8 µM	26.4 µM	7.17 µM	31.8 µM	14.3 µM	65.7 µM	13.5 µM	65.5 µM	11.9 µM	34.4 µM	16.6 µM	59.9 µM
CC1(C)OC2COC(c3[nH]nc4c(=O)[nH]c(=O)[nH]c34)C2O1 (stereo not given)	–	> 100 µM	–	> 100 µM	–	> 100 µM	–	> 100 µM	–	> 100 µM	–	> 100 µM	–	> 100 µM	–	> 100 µM	–	> 100 µM	–	> 100 µM
CCN(CC)c1ccc(/C=N/NC(=O)c2ccccc2Nc2ccnc(C(F)(F)F)c2)c(O)c1	0.529 µM	> 100 µM	0.212 µM	> 100 µM	0.101 µM	4.35 µM	0.384 µM	> 100 µM	0.0837 µM	–	0.248 µM	> 100 µM	0.235 µM	2.37 µM	0.0681 µM	> 23.4 µM	0.287 µM	3.55 µM	0.377 µM	> 100 µM
CCCC(=O)Nc1c(I)cc(I)c(CC(CC)C(=O)O)c1I (stereo not given)	> 100 µM	> 100 µM	> 100 µM	> 100 µM	> 100 µM	> 100 µM	> 100 µM	> 100 µM	> 100 µM	> 100 µM	> 100 µM	> 100 µM	> 100 µM	> 100 µM	> 100 µM	> 100 µM	> 100 µM	> 100 µM	> 100 µM	> 100 µM
O=C(O)CNC(=O)C1NC(C(F)(F)F)(C(F)(F)F)OC1(C(F)(F)F)C(F)(F)F (stereo not given)	–	> 100 µM	–	> 100 µM	–	> 100 µM	–	> 100 µM	–	> 100 µM	–	> 100 µM	–	> 100 µM	–	> 100 µM	–	> 100 µM	–	> 100 µM
COc1cc2c(cc1OC)-c1ncc3cc(OC)c(OC)c(OC)c3c1C2	2.94 µM	7.56 µM	27.7 µM	> 100 µM	22.8 µM	90.1 µM	3.89 µM	48.6 µM	16.8 µM	35.8 µM	–	–	–	–	31.6 µM	> 100 µM	10.3 µM	41.7 µM	57.3 µM	> 100 µM

— PubChem BioAssay (NCI)
